Data: patent US20070197556A1, “Fungicidal Mixtures” (priority 2004, published 2007)

Test system: Pyrenophora teres
Assay: activity against net blotch of barley caused by Pyrenophora teres, 1 day protective application
Assay type: in vivo
Details: individual active compound, 5 ppm in the spray liquor, barley seedlings cultivar Hanna, assessed after 6 days
Experimental: The active compounds were prepared separately as a stock solution comprising 25 mg of active compound which was made up to 10 ml using a mixture of acetone and/or DMSO and the emulsifier Uniperol® EL (wetting agent having emulsifying and dispersing action based on ethoxylated alkylphenols) in a volume ratio solvent:emulsifier of 99:1. The mixture was then made up with water to 100 ml. The active compounds or mixtures were mixed or diluted with water to the desired concentration.
Use example—activity against net blotch of barley caused by Pyrenophora teres, 1 day protective application
Leaves of potted barley seedlings of the cultivar “Hanna” were sprayed to runoff point with an aqueous suspension having the concentration of active compound stated below. 24 hours after the spray coating had dried on, the test plants were inoculated blotch pathogen. […] After 6 days, the extent of the development of the disease was determined visually in % infection of the entire leaf area.
The visually determined values for the percentages of infected leaf areas were converted into efficacies in % of the untreated control:
The efficacy (E) is calculated as follows using Abbot's formula: E=(1−α/β)·100 • α corresponds to the fungal infection of the treated plants in % and • β corresponds to the fungal infection of the untreated (control) plants in % […]

## CC1CCN(c2c(-c3c(F)cc(F)cc3F)c(Cl)nc3ncnn23)CC1 [I, 5-chloro-7-(4-methylpiperidin-1-yl)-6-(2,4,6-trifluorophenyl)[1,2,4]tri-azolo[1,5-a]pyrimidine]
  Efficacy in % of the untreated control: 72%
